From ChEMBL document CHEMBL1201862, “PubChem BioAssay data set” (2004)
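96-well plates; 48 h exposure; 5 concentrations. Endpoints by linear interpolation between flanking doses. Not reached: highest tested concentration assigned. GI50 = concentration required for 50% inhibition of growth.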 Active and inactive are the calls of the source. Cut-off read from the data, not from the text of the source: active = GI50 up to about 1.1 µM and inactive = higher.

Tests used:
Test in all cases: DTP human tumour cell line panel, 48 h
OVCAR-4 = system: OVCAR-4
CAKI-1 = system: CAKI-1
OVCAR-5 = system: OVCAR-5
SNB-19 = system: SNB-19
SF-539 = system: SF-539
SK-OV-3 = system: SK-OV-3
SW-620 = system: SW-620
NCI-H460 = system: NCI-H460
HOP-92 = system: HOP-92
SK-MEL-28 = system: SK-MEL-28
SF-295 = system: SF-295
OVCAR-3 = system: OVCAR-3
Malme-3M = system: Malme-3M
SF-268 = system: SF-268
SK-MEL-5 = system: SK-MEL-5
RXF 393 = system: RXF 393
A498 = system: A498

Row | SMILES | GI50 (OVCAR-4) | GI50 (CAKI-1) | GI50 (OVCAR-5) | GI50 (SNB-19) | GI50 (SF-539) | GI50 (SK-OV-3) | GI50 (SW-620) | GI50 (NCI-H460) | GI50 (HOP-92) | GI50 (SK-MEL-28) | GI50 (SF-295) | GI50 (OVCAR-3) | GI50 (Malme-3M) | GI50 (SF-268) | GI50 (SK-MEL-5) | GI50 (RXF 393) | GI50 (A498)
1 | Cc1ccc(OCC(=O)N2N=C(c3ccccc3)CC2(O)c2ccccc2)cc1 (stereo not given) | 18.5 µM (inactive) | > 100 µM (inactive) | 18.1 µM (inactive) | > 100 µM (inactive) | 43 µM (inactive) | > 100 µM (inactive) | 51.6 µM (inactive) | 15 µM (inactive) | 55.2 µM (inactive) | 80 µM (inactive) | 76 µM (inactive) | 33.3 µM (inactive) | > 100 µM (inactive) | > 100 µM (inactive) |  |  | 
2 | COC1=CC(=O)NCCN1 | > 100 µM (inactive) | > 100 µM (inactive) | > 100 µM (inactive) | > 100 µM (inactive) | > 100 µM (inactive) | > 100 µM (inactive) | 18.2 µM (inactive) | 29.3 µM (inactive) | > 100 µM (inactive) | > 100 µM (inactive) | > 100 µM (inactive) | > 100 µM (inactive) | > 100 µM (inactive) | > 100 µM (inactive) | > 100 µM (inactive) | > 100 µM (inactive) | > 100 µM (inactive)
3 | COc1ccc2nc3cccc(C(=O)NCCN(C)C)c3nc2c1 | 1.63 µM (inactive) |  | 1.51 µM (inactive) | 2.84 µM (inactive) | 2.1 µM (inactive) | 4.09 µM (inactive) | 0.573 µM (active) |  | 5.13 µM (inactive) | 2.25 µM (inactive) | 2.08 µM (inactive) | 2.08 µM (inactive) | 0.571 µM (active) |  | 2.04 µM (inactive) | 1.55 µM (inactive) | 1.55 µM (inactive)
4 | Cc1ccc(NC(=O)c2cc3cc(/N=N/c4ccc(Br)cc4)ccc3oc2=O)cc1 | > 100 µM (inactive) | 30.5 µM (inactive) | > 100 µM (inactive) | 25.9 µM (inactive) |  | > 100 µM (inactive) | 86.9 µM (inactive) | > 100 µM (inactive) | > 100 µM (inactive) | > 100 µM (inactive) | > 100 µM (inactive) |  | > 100 µM (inactive) | 28.2 µM (inactive) | > 100 µM (inactive) | > 100 µM (inactive) | 46.3 µM (inactive)
5 | O=C1C(=O)N(c2ccc(Cl)cc2Cl)C(=O)C(=O)C1c1nc2ccccc2s1 | > 78.5 µM (inactive) | 64.1 µM (inactive) | > 100 µM (inactive) | > 100 µM (inactive) | > 100 µM (inactive) | > 100 µM (inactive) | > 78.3 µM (inactive) | > 100 µM (inactive) | 80.4 µM (inactive) | > 87.9 µM (inactive) | > 100 µM (inactive) | > 100 µM (inactive) | > 100 µM (inactive) | > 56.4 µM (inactive) | 65.2 µM (inactive) | > 100 µM (inactive) | > 100 µM (inactive)
6 | CN(C)C(=O)/N=c1\ss/c(=N\C(=S)N(C)C)n1-c1ccccc1 | 16.8 µM (inactive) | > 100 µM (inactive) | > 90.2 µM (inactive) | 35.6 µM (inactive) | 35.4 µM (inactive) | > 100 µM (inactive) | 28.3 µM (inactive) | 17 µM (inactive) | > 51.4 µM (inactive) | 18.1 µM (inactive) | 40.2 µM (inactive) | 21.2 µM (inactive) | 42.9 µM (inactive) | 25.6 µM (inactive) | 29.6 µM (inactive) | 38.4 µM (inactive) | 56.8 µM (inactive)
7 | N#Cc1ccccc1NC(=O)C(=O)C(C(=O)c1ccccc1-c1ccccc1)C1OC(=O)c2ccccc21 (stereo not given) |  |  | 17.8 µM (inactive) |  | 10.7 µM (inactive) | 41.2 µM (inactive) | 29 µM (inactive) | 18.2 µM (inactive) | 20 µM (inactive) | 18.2 µM (inactive) | 17.6 µM (inactive) | 15.8 µM (inactive) | 10.4 µM (inactive) | 14.3 µM (inactive) | > 100 µM (inactive) | 11.6 µM (inactive) | 25.4 µM (inactive)
8 | COc1cc(/C=C2/C(=O)N(C(=O)OC(C)C)C(Cc3cc(OC)c(OC)c(C)c3OC)C(=O)N2Cc2ccccc2)c(OC)c(C)c1OC (stereo not given) | 20.9 µM (inactive) | > 100 µM (inactive) | > 100 µM (inactive) |  | > 100 µM (inactive) | 91.2 µM (inactive) | 14.8 µM (inactive) | 3.51 µM (inactive) | 4 µM (inactive) | > 100 µM (inactive) | 68.7 µM (inactive) | 12.7 µM (inactive) | 22.2 µM (inactive) | > 100 µM (inactive) | 14.4 µM (inactive) | 20.4 µM (inactive) | 73.1 µM (inactive)
9 | COC(=O)c1ncc2c(=O)[nH]c3ccccc3c2c1C(=O)OC | > 100 µM (inactive) | > 100 µM (inactive) | > 100 µM (inactive) | > 100 µM (inactive) | > 100 µM (inactive) |  | > 100 µM (inactive) | 22 µM (inactive) | > 100 µM (inactive) | > 100 µM (inactive) | > 100 µM (inactive) | > 100 µM (inactive) | > 100 µM (inactive) | > 100 µM (inactive) | > 100 µM (inactive) | > 100 µM (inactive) | > 100 µM (inactive)
10 | CCOC(=O)NC(=O)c1cn(CCCOC(=O)CCCCCCCCC(=O)OCCCn2cc(C(=O)NC(=O)OCC)c(=O)[nH]c2=O)c(=O)[nH]c1=O | 4.41 µM (inactive) | 7.28 µM (inactive) |  | 22.3 µM (inactive) | 23.8 µM (inactive) | 40.5 µM (inactive) | 15 µM (inactive) | 39.4 µM (inactive) |  | 16.4 µM (inactive) | 22.8 µM (inactive) | 15.8 µM (inactive) |  |  | 21.9 µM (inactive) | > 10 µM (inactive) | 21.7 µM (inactive)
11 | CC1(C)OC(=O)[C@@](C)([C@H](O)c2ccccc2)O1 | > 100 µM (inactive) | 46.3 µM (inactive) |  | > 100 µM (inactive) | > 100 µM (inactive) | > 100 µM (inactive) | > 100 µM (inactive) | > 100 µM (inactive) | 28.6 µM (inactive) | > 10 µM (inactive) | > 100 µM (inactive) | 35.8 µM (inactive) | 28.7 µM (inactive) | > 100 µM (inactive) | 40.1 µM (inactive) | > 100 µM (inactive) | > 100 µM (inactive)
12 | O=C(O)c1ccccc1C1c2ccc(Cl)cc2Oc2cc(Cl)ccc21 | > 100 µM (inactive) | > 100 µM (inactive) | > 100 µM (inactive) | > 100 µM (inactive) | > 100 µM (inactive) | > 100 µM (inactive) | > 100 µM (inactive) | > 100 µM (inactive) | > 100 µM (inactive) | > 100 µM (inactive) | > 100 µM (inactive) | > 100 µM (inactive) | > 100 µM (inactive) | > 100 µM (inactive) | > 100 µM (inactive) | > 100 µM (inactive) | 
13 | CC(=O)Nc1ccc(-c2nnc(SCC(=O)Nc3cccc(C)c3)o2)cc1 | 16 µM (inactive) | 16.7 µM (inactive) | 13.4 µM (inactive) |  | 14.5 µM (inactive) | 25.8 µM (inactive) | 12.8 µM (inactive) | 15 µM (inactive) | 13 µM (inactive) | 13.8 µM (inactive) | 10.8 µM (inactive) | 11.7 µM (inactive) | 14.1 µM (inactive) | 24.5 µM (inactive) | 11.1 µM (inactive) | 12.8 µM (inactive) | 
14 | CN(C)CC(/C(Cc1ccccc1)=N\NC(=O)C[n+]1ccccc1)c1ccccc1 (stereo not given) | > 100 µM (inactive) | > 100 µM (inactive) | > 100 µM (inactive) | > 100 µM (inactive) | > 100 µM (inactive) | > 100 µM (inactive) |  | > 100 µM (inactive) | > 100 µM (inactive) | > 100 µM (inactive) | > 100 µM (inactive) | > 100 µM (inactive) | > 100 µM (inactive) | > 100 µM (inactive) | > 100 µM (inactive) | > 100 µM (inactive) | > 100 µM (inactive)
15 | COc1ccc2cc3c4cc(OC)c(OC)cc4ccn3c2c1 | > 100 µM (inactive) | > 100 µM (inactive) | > 100 µM (inactive) | > 100 µM (inactive) | > 100 µM (inactive) | > 100 µM (inactive) | > 100 µM (inactive) | > 100 µM (inactive) | > 100 µM (inactive) | > 100 µM (inactive) | > 100 µM (inactive) |  | > 100 µM (inactive) | > 100 µM (inactive) | > 100 µM (inactive) | > 100 µM (inactive) | > 100 µM (inactive)
16 | CC(C)CCCC(C)[C@H]1CCC2[C@@H]3CCC4Nc5c(cnn5-c5ccccc5)C[C@]4(C)C3CC[C@@]21C (stereo not given in full) | 25.6 µM (inactive) | 5.11 µM (inactive) | 50.1 µM (inactive) | 18.2 µM (inactive) | 12.9 µM (inactive) | 48.5 µM (inactive) | 21.5 µM (inactive) | 14.1 µM (inactive) |  |  | 2.84 µM (inactive) | 32.5 µM (inactive) | 28.7 µM (inactive) | 85.3 µM (inactive) | 85.1 µM (inactive) | 2.78 µM (inactive) | 89.5 µM (inactive)
17 | COc1cccc(/C=C\c2cc(OC)c(OC)c(OC)c2)c1 | 14.4 µM (inactive) | 0.887 µM (active) | 22.2 µM (inactive) | 2.18 µM (inactive) | 0.753 µM (active) | 4.38 µM (inactive) | 0.656 µM (active) | 0.562 µM (active) | 22.6 µM (inactive) | 0.507 µM (active) |  | 0.506 µM (active) | 0.585 µM (active) | 3.66 µM (inactive) |  |  | 
18 | Cc1cc(C)c(C(=O)/C=C/c2ccccc2)c(C)c1 | 22.8 µM (inactive) | 36.5 µM (inactive) |  | 28.5 µM (inactive) | > 10 µM (inactive) | 64.6 µM (inactive) | 23 µM (inactive) | 18.7 µM (inactive) | 19.1 µM (inactive) | > 10 µM (inactive) | 21.8 µM (inactive) | > 10 µM (inactive) | 8.02 µM (inactive) | 20.6 µM (inactive) | > 100 µM (inactive) | 15.8 µM (inactive) | 
